What follows are molecules tested against T1, IL-17A (Homo sapiens, UniProt Q16552) (assay: Inhibition of IL-17A induced IL-6 release from dermal fibroblast cell line (HDF cell line assay)). Details: HDF cells stimulated with IL-17A 50 pM + TNFα 25 pM; IL-6 measured by HTRF.
T1 sequence (Q16552 24-155): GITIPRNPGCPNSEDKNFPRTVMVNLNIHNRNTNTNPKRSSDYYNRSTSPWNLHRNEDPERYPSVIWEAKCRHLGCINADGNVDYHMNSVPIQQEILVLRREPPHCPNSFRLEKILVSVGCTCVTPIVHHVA
Format: cell-based
Excerpt: Inhibition of IL-17A Induced IL-6 Release from Dermal Fibroblast Cell Line
The purpose of this assay is to test the neutralising ability to IL-17 proteins, in a human primary cell system. Stimulation of normal human dermal fibroblasts (HDF) with IL-17 alone produces only a very weak signal but in combination with certain other cytokines, such as TNFα, a synergistic effect can be seen in the production of inflammatory cytokines, i.e. IL-6.
HDFs were stimulated with IL-17A (50 pM) in combination with TNF-α (25 pM). The resultant IL-6 response was then measured using a homogenous time-resolved FRET kit from Cisbio. The kit utilises two monoclonal antibodies, one labelled with Eu-Cryptate (Donor) and the second with d2 or XL665 (Acceptor). The intensity of the signal is proportional to the concentration of IL-6 present in the sample (Ratio is calculated by 665/620×104).
The ability of a compound to inhibit IL-17 induced IL-6 release from human dermal fibroblasts is measured in this assay.
HDF cells (Sigma #106-05n) were cultured in complete media (DMEM+10% FCS+2 mM L-glutamine) and maintained in a tissue culture flask using standard techniques. Cells were harvested from the tissue culture flask on the morning of the assay using TrypLE (Invitrogen #12605036). The TrypLE was neutralised using complete medium (45 mL) and the cells were centrifuged at 300×g for 3 minutes. The cells were re-suspended in complete media (5 mL) counted and adjusted to a concentration of 3.125×10^4 cells/mL before being added to the 384 well assay plate (Corning #3701) at 40 μL per well. The cells were left for a minimum of three hours, at 37° C./5% CO2, to adhere to the plate.
Compounds were serially diluted in DMSO before receiving an aqueous dilution into a 384 well dilution plate (Greiner #781281), where 5 μL from the titration plate was transferred to 45 μL of complete media and mixed to give a solution containing 10% DMSO.
Mixtures of TNFα and IL-17 cytokine were prepared in complete media to final concentrations of TNFα 25 pM/IL-17A 50 pM, then 30 μL of the solution was added to a 384 well reagent plate (Greiner #781281).
10 μL from the aqueous dilution plate was transferred to the reagent plate containing 30 μL of the diluted cytokines, to give a 2.5% DMSO solution. The compounds were incubated with the cytokine mixtures for 5 h at 37° C. […]
From the Cisbio IL-6 FRET kit (Cisbio #62IL6PEB) europium cryptate and Alexa 665 were diluted in reconstitution buffer and mixed 1:1, as per kit insert. […] The mixture was incubated at room temperature for 3 h with gentle shaking (<400 rpm) before being read on a Synergy Neo 2 plate reader (Excitation: 330 nm; Emission: 615/645 nm).

IC50 [nM]	Compound
39.8	[2H]C([2H])([2H])O[C@H]1CCN(C(=O)[C@@H]2CCC(F)(F)CO2)[C@@H](c2cnn3cc([C@@H](NC(=O)c4ccnn4C)C4CCC(F)(F)CC4)nc3n2)C1 (single isomer, unassigned) [Example 1, N—[(S)-(4,4-Difluorocyclohexyl)(3-{(2R,4S or 2S,4R)-1-[(2S)-5,5-difluorotetrahydro-pyran-2-carbonyl]-4-(trideuteriomethoxy)piperidin-2-yl}imidazo[1,2-bl[1,2,4]triazin-6-yl)methyl]-2-methylpyrazole-3-carboxamide]
39.8	CO[C@H]1CCN(C(=O)[C@@H]2CCC(F)(F)CO2)[C@@H](c2cnn3cc([C@@H](NC(=O)c4ccnn4C)C4CCC(F)(F)CC4)nc3n2)C1 (single isomer, unassigned) [Example 3, N—[(S)-(4,4-Difluorocyclohexyl)(3-{(2R,4S or 2S,4R)-1-[(2S)-5,5-difluorotetrahydro-pyran-2-carbonyl]-4-methoxypiperidin-2-yl}imidazo[1,2-b][1,2,4]triazin-6-yl)methyl]-2-methylpyrazole-3-carboxamide]
3.98	[2H]C([2H])([2H])O[C@H]1CCN(C(=O)[C@@H]2CCC(F)(F)CO2)[C@H](c2cnn3cc(C(NC(=O)c4ccnn4C)C4CCC(F)(F)CC4)nc3n2)C1 (single isomer, unassigned) [Example 2, N—[(S)-(4,4-Difluorocyclohexyl)(3-{(2S,4S or 2R,4R)-1-[(2S)-5,5-difluorotetrahydro-pyran-2-carbonyl]-4-(trideuteriomethoxy)piperidin-2-yl}imidazo[1,2-bl[1,2,4]triazin-6-yl)methyl]-2-methylpyrazole-3-carboxamide]
3.16	CO[C@H]1CCN(C(=O)[C@@H]2CCC(F)(F)CO2)[C@H](c2cnn3cc(C(NC(=O)c4ccnn4C)C4CCC(F)(F)CC4)nc3n2)C1 (single isomer, unassigned) [Example 4, N—[(S)-(4,4-Difluorocyclohexyl)(3-{(2S,4S or 2R,4R)-1-[(2S)-5,5-difluorotetrahydro-pyran-2-carbonyl]-4-methoxypiperidin-2-yl}imidazo[1,2-bl[1,2,4]triazin-6-yl)methyl]-2-methylpyrazole-3-carboxamide]

Source: US20260285868A1, “IMIDAZOTRIAZINE DERIVATIVES AS IL-17 MODULATORS” (UCB BIOPHARMA SRL, priority 2023, published 2026)
